Test results as given in paper PMC3532936 (Journal of biomolecular screening, 2011).
Several values for one entry are separate records, joined by “and”; a condition that tells them apart may be missing. Equal entries are not always repeated. Where two headings read alike, the source gives them in different places.

What was measured:
[1] = molecular target: CE protein (YF or DEN); settings: read-out: Ki for the displacement of GTP–BODIPY; competition assay; cited from earlier work
[2] = molecular target: T1, YF CE (Yellow fever virus, UniProt P03314); type: binding, yellow fever virus (strain 17D)
T1 sequence (P03314 2507-2771 limits assumed): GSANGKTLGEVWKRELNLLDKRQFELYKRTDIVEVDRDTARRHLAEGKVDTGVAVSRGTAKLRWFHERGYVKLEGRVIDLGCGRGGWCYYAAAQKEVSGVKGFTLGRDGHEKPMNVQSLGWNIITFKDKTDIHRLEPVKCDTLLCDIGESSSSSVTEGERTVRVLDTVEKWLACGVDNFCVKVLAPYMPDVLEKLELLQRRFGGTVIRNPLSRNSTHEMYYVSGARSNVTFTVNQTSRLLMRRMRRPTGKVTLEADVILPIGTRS

[3] = molecular target: T2, DEN2 CE (Dengue virus type 2, UniProt P29990); type: binding, dengue virus 2 (strain 16681)
T2 sequence (P29990 2493-2755 limits assumed): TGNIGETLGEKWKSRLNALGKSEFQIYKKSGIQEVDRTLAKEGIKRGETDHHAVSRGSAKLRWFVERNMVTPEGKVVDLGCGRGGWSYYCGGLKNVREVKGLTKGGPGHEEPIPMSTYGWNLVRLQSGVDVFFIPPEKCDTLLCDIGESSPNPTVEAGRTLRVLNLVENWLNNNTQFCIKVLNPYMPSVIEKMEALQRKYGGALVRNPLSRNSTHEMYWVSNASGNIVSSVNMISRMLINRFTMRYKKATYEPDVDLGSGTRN

[4] = molecular target: T1, YF CE
[5] = molecular target: T3, DEN CE (Dengue virus type 2, UniProt P29990); type: biochemical
T3 sequence (P29990 2493-2755 limits assumed): T2 sequence (P29990 2493-2755 limits assumed)

| Structure (SMILES) | Ki [1] [µM] | Percent Inhibition HTS [2] [%] | Ki ([3]; read-out: apparent Ki, FP, DEN) [µM] | Ki ([3]; read-out: apparent Ki, TF, DEN) [µM] | Ki ([4]; read-out: apparent Ki, FP, YF) [µM] | Ki ([4]; read-out: apparent Ki, TF, YF) [µM] | average mP value of inhibition [2] | inhibition of guanylation (in words) [5] | IC50 ([5]; read-out: Guanylation IC50 DEN) [µM] |
| --- | --- | --- | --- | --- | --- | --- | --- | --- | --- |
| Nc1ncnc2c1ncn2[C@@H]1O[C@H](COP(=O)(O)OP(=O)(O)OP(=O)(O)O)[C@@H](O)[C@H]1O [adenosine triphosphate (ATP), adenosine triphosphate] | 350 | – | – | – | – | – | – | – | – |
| COC(=O)[n+]1ccc(N2CCOCC2)cc1 [BAS01531218] | – | 12 | 4.8 ± 1.5 | 2.6 ± 0.5 | 4.9 ± 1 | 6.2 ± 1.4 | – | – | – |
| Nc1nc2c(ncn2[C@@H]2O[C@H](COP(=O)(O)OP(=O)(O)OP(=O)(O)O)[C@@H](O)[C@H]2O)c(=O)[nH]1 [GTP, guanosine triphosphate, reference compound] | 0.04 | – | – | – | – | – | 42.4 ± 5.19 mP and 81.8 ± 6.09 mP | – | – |
| Cc1ccc(C)n1C(Cc1c[nH]c2ccccc12)C(=O)O (stereo not drawn) [BAS 01211690] | – | 23 | 10.1 ± 1.3 | 9.1 ± 2.5 | 5.8 ± 0.5 | 5.8 ± 1.7 | – | weaker inhibition of guanylation | 78.9 ± 37.8 |
